Measurements taken from paper PMC7816587 (Food and Chemical Toxicology, 2021).

Assay: Pharmacokinetic interactions between QPD and lopinavir in rats
Type: in vivo
Conditions: male, Sprague-Dawley, rat, plasma, po, 160 mg/kg

Structure (SMILES): Cc1cccc(C)c1OCC(=O)N[C@@H](Cc1ccccc1)[C@@H](O)C[C@H](Cc1ccccc1)NC(=O)[C@H](C(C)C)N1CCCNC1=O [lopinavir]
- Tmax: 8 h
- AUC(0-inf) (AUC(0-inf) of lopinavir, rats, water + lopinavir 160 mg/kg i.g. (control group)): 6090 ng·h/mL
- half-life (t1/2 of lopinavir, rats, water + lopinavir 160 mg/kg i.g. (control group)): 1.9 h
